Data: patent US7608581B2, “Biofunctional, antimicrobial coatings for medical devices” (Affinergy, Inc., priority 2004, dated 2009)

Conditions: as compared to SEQ ID NO:73 (two cysteines substituted by serine)

## SDKSHKHWYSYESKYGGS [SEQ ID NO:74]
  reduction in binding affinity: 10 fold
